Results on 22 compounds are retold here after patent US10316021B2, “Heteroarylphenoxy benzamide kappa opioid ligands” (Pfizer Inc., priority 2016, dated 2019).

For experiment [1], the target named is T1, human mu opioid receptor (hMOR) (Homo sapiens, UniProt P35372).
T1 construct: expressed in transfected cells; host or cells: CHO cells
Briefly: Mu radioligand binding assay ([3H]diprenorphine, CHO cell membranes). The conditions noted are these: read-out: hMOR binding assay Ki. As to the method:
(§1) Kappa and Mu Radioligand Binding Assay:
Binding assays on membranes from CHO cells expressing human kappa or mu opioid receptors were performed according to standard procedures. Frozen cell paste was homogenized in 50 mM Tris HCl buffer (pH 7.4 @ 4 degrees C.) containing 2.0 mM MgCl2 using a Polytron and spun in a centrifuge at 40,000 g for ten minutes. The final pellet was resuspended in assay buffer (50 mM Tris HCl buffer, pH 7.4, containing 1 mM EDTA, 5 mM MgCl2). Incubations were initiated by the addition of membranes to 96-well plates containing test drugs and [^3H]diprenorphine (0.6 nM final concentration for kappa opioid receptor and 0.5 nM final concentration for mu) in a final volume of 250 μl. Non-specific binding was determined by radioligand binding in the presence of a saturating concentration of naltrexone (10 μM). After a one hour incubation period at room temperature, assay samples were rapidly filtered through PEI coated, GF/B fired Unifilter plates (PerkinElmer) and rinsed with ice-cold 50 mM Tris buffer (pH 7.4). Membrane bound [^3H]diprenorphine levels were determined by liquid scintillation counting of the filterplates in Ecolume scintillation fluid. […] Ki values were calculated according to the Cheng Prusoff equation, Ki=IC50/(1+(L/Kd)), where L is the concentration of the radioligand used in the experiment and the Kd value is the dissociation constant for the radioligand (determined previously by saturation analysis).

For experiment [2], the target named is T2, human kappa opioid receptor (hKOR) (Homo sapiens, UniProt P41145).
T2 construct: expressed in transfected cells; host or cells: CHO cells
Kind of experiment: Kappa radioligand binding assay ([3H]diprenorphine, CHO cell membranes). The conditions noted are these: for Ki: read-out: hKOR binding assay Ki; for Selectivity hMOR/hKOR: selectivity ratio calculated by dividing the hMOR Ki by the hKOR Ki. As to the method:
as §1
Binding assays on membranes from CHO cells expressing human kappa or mu opioid receptors were performed according to standard procedures. Frozen cell paste was homogenized in 50 mM Tris HCl buffer (pH 7.4 @ 4 degrees C.) containing 2.0 mM MgCl2 using a Polytron and spun in a centrifuge at 40,000 g for ten minutes. The final pellet was resuspended in assay buffer (50 mM Tris HCl buffer, pH 7.4, containing 1 mM EDTA, 5 mM MgCl2). Incubations were initiated by the addition of membranes to 96-well plates containing test drugs and [^3H]diprenorphine (0.6 nM final concentration for kappa opioid receptor and 0.5 nM final concentration for mu) in a final volume of 250 μl. Non-specific binding was determined by radioligand binding in the presence of a saturating concentration of naltrexone (10 μM). After a one hour incubation period at room temperature, assay samples were rapidly filtered through PEI coated, GF/B fired Unifilter plates (PerkinElmer) and rinsed with ice-cold 50 mM Tris buffer (pH 7.4). Membrane bound [^3H]diprenorphine levels were determined by liquid scintillation counting of the filterplates in Ecolume scintillation fluid. The IC50 value (concentration at which 50% inhibition of specific binding occurs) was calculated using a logistic 4 parameter fit model of the concentration-response data. Ki values were calculated according to the Cheng Prusoff equation, Ki=IC50/(1+(L/Kd)), where L is the concentration of the radioligand used in the experiment and the Kd value is the dissociation constant for the radioligand (determined previously by saturation analysis).

[3] abbreviates: Table 19, geometric mean of 2-6 determinations unless otherwise indicated (Example 3: >=7).

Like-named read-outs stand apart in the source and are kept apart here.

T1 sequence (P35372 whole entry): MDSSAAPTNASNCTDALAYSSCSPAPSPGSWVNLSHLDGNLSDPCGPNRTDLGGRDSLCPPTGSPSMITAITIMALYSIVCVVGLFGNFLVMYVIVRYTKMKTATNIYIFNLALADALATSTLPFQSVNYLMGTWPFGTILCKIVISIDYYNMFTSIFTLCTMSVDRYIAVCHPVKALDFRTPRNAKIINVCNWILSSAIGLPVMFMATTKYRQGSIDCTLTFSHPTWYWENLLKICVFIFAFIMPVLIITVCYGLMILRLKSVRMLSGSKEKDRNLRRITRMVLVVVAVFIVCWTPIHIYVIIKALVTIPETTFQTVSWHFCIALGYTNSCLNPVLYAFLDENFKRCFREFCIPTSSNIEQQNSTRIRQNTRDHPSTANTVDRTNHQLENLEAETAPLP
T2 sequence (P41145 whole entry): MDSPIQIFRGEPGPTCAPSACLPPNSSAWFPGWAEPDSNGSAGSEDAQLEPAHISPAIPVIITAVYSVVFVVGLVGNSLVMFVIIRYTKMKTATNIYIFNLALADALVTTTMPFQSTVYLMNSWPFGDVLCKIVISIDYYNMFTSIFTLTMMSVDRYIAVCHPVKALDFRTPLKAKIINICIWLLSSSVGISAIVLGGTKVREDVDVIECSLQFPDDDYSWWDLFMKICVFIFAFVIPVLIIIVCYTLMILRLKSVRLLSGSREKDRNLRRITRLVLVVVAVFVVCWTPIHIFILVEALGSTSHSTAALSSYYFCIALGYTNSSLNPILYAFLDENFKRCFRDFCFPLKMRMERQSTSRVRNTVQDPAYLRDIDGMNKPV

For the compound `Cc1nn(C)cc1C1CCCN1Cc1ccc(Oc2ccc(C(N)=O)cc2)c(F)c1` (racemic) [Example 1, (+/−)-4-(4-{[2-(1,3-Dimethyl-1H-pyrazol-4-yl)pyrrolidin-1-yl]methyl}-2-fluorophenoxy) benzamide], the Ki in experiment [1] (setting [3]) came to 20.2 nM; in experiment [2] (setting [3]) it was 0.871 nM.

`COc1nn(C)cc1C1CCCN1Cc1ccc(Oc2ccc(C(N)=O)cc2F)cc1` (racemic) [Example 7, (+/−)-3-Fluoro-4-(4-{[2-(3-methoxy-1-methyl-1H-pyrazol-4-yl)pyrrolidin-1-yl]methyl}phenoxy)benzamide]: the Ki in experiment [1] (setting [3]) came out at 196 nM; in experiment [2] (setting [3]) it was 5.71 nM.

Take `Cc1nn(C)cc1C1CCCN1Cc1ccc(Oc2ccc(C(N)=O)c(O)c2)cc1` (racemic) [Example 16, (+/−)-4-(4-{[2-(1,3-Dimethyl-1H-pyrazol-4-yl)pyrrolidin-1-yl]methyl}phenoxy)-2-hydroxybenzamide]: the Ki in experiment [1] (setting [3]) was found to be 159 nM; in experiment [2] (setting [3]) it was 9.67 nM.

For the compound `Cc1c(C2CCCN2Cc2ccc(Oc3ccc(C(N)=O)cc3)cc2)cnn1C` (racemic) [Example 36], the figures for the Ki in experiment [1] (setting [3]) and in experiment [2] (setting [3]) were 20.9 nM and 8.53 nM, respectively.

Consider `Cc1nn(C)c(C)c1C1CCCN1Cc1ccc(Oc2ccc(C(N)=O)cc2F)cc1` (racemic) [Example 37], for which the Ki in experiment [1] (setting [3]) was 12.5 nM; in experiment [1] (Table 20, radioligand binding) it was 12.5 nM; in experiment [2] (setting [3]), 13.3 nM; in experiment [2] (Table 20, radioligand binding) it was 13.3 nM. Also, the “selectivity for KOR over MOR (hMOR Ki divided by hKOR Ki)” value in experiment [2] was 0.9 fold. Further, the “Selectivity hMOR/hKOR” value in experiment [2] is listed as 0.9.

`Cc1nn(C)cc1C1CCCN1Cc1ccc(Oc2ccc(C(N)=O)cc2F)cc1` (single isomer, unassigned) [Example 5, 4-(4-{[2-(1,3-Dimethyl-1H-pyrazol-4-yl)pyrrolidin-1-yl]methyl}phenoxy)-3-fluorobenzamide]: the Ki in experiment [1] (setting [3]) turned out to be 73.6 nM; in experiment [2] (setting [3]), 16.8 nM.

Turning to `COc1nn(C)cc1C1COCCN1Cc1ccc(Oc2ccc(C(N)=O)cc2F)cc1` (single isomer, unassigned) [Example 20, 3-fluoro-4-(4-{[3-(3-methoxy-1-methyl-1H-pyrazol-4-yl)morpholin-4-yl]methyl}phenoxy)benzamide], the Ki is 165 nM in experiment [1] (setting [3]) and 5.86 nM in experiment [2] (setting [3]).

With `COc1nn(C)cc1C1CCCCN1Cc1ccc(Oc2ccc(C(N)=O)cc2)cc1` (single isomer, unassigned) [Example 21, 4-(4-{[2-(3-methoxy-1-methyl-1H-pyrazol-4-yl)piperidin-1-yl]methyl}phenoxy)benzamide], the Ki in experiment [1] (setting [3]) was determined as 14.6 nM; in experiment [2] (setting [3]) it was 0.567 nM.

Turning to `COc1nn(C)cc1C1COCCN1Cc1ccc(Oc2ccc(C(N)=O)cc2)c(F)c1` (single isomer, unassigned) [Example 22, 4-(2-fluoro-4-{[3-(3-methoxy-1-methyl-1H-pyrazol-4-yl)morpholin-4-yl]methyl}phenoxy)benzamide], the figures for the Ki in experiment [1] (setting [3]) and in experiment [2] (setting [3]) were 95.1 nM and 4.52 nM, respectively.

For `COc1nn(C)cc1C1COCCN1Cc1ccc(Oc2ccc(C(N)=O)cc2)cc1` (single isomer, unassigned) [Example 23, 4-(4-{[3-(3-methoxy-1-methyl-1H-pyrazol-4-yl)morpholin-4-yl]methyl}phenoxy)benzamide], the values for the Ki in experiment [1] (setting [3]) and in experiment [2] (setting [3]) were 73.3 nM and 3.22 nM, respectively.

Consider `COc1nn(C)cc1C1CC(F)CN1Cc1ccc(Oc2ccc(C(N)=O)cc2)cc1` (single isomer, unassigned) [Example 24, 4-(4-{[4-fluoro-2-(3-methoxy-1-methyl-1H-pyrazol-4-yl)pyrrolidin-1-yl]methyl}phenoxy)benzamide], for which the Ki came to 252 nM in experiment [1] (setting [3]) and 2.21 nM in experiment [2] (setting [3]).

`Cc1nn(C)cc1C1CC(F)CN1Cc1ccc(Oc2ccc(C(N)=O)cc2)cc1` (single isomer, unassigned) [Example 25, 4-(4-{[2-(1,3-dimethyl-1H-pyrazol-4-yl)-4-fluoropyrrolidin-1-yl]methyl}phenoxy) benzamide]: the Ki amounted to 391 nM in experiment [1] (setting [3]) and 2.7 nM in experiment [2] (setting [3]).

For `Cc1nn(C)cc1C1CC(F)CN1Cc1ccc(Oc2ccc(C(N)=O)cc2)cc1` (single isomer, unassigned) [Example 26, 4-(4-{[2-(1,3-dimethyl-1H-pyrazol-4-yl)-4-fluoropyrrolidin-1-yl]methyl}phenoxy) benzamide], the Ki in experiment [1] (setting [3]) was over 526 nM; in experiment [2] (setting [3]), 10.5 nM.

Regarding `COc1nn(C)cc1C1CC(C)CN1Cc1ccc(Oc2ccc(C(N)=O)cc2F)cc1` (single isomer, unassigned) [Example 28, 3-fluoro-4-(4-{[2-(3-methoxy-1-methyl-1H-pyrazol-4-yl)-4-methylpyrrolidin-1-yl]methyl}phenoxy)benzamide], the Ki in experiment [1] (setting [3]) worked out at 77.9 nM; in experiment [2] (setting [3]), 4.88 nM.

On to `COc1nn(C)cc1C1CC(C)CN1Cc1ccc(Oc2ccc(C(N)=O)cc2F)cc1` (single isomer, unassigned) [Example 29, 3-fluoro-4-(4-{[2-(3-methoxy-1-methyl-1H-pyrazol-4-yl)-4-methylpyrrolidin-1-yl]methyl}phenoxy)benzamide], for which the results for the Ki in experiment [1] (setting [3]) and in experiment [2] (setting [3]) were 10.6 nM and 0.498 nM, respectively.

With `COc1nn(C)cc1C1CC(C)CN1Cc1ccc(Oc2ccc(C(N)=O)cc2F)cc1` (single isomer, unassigned) [Example 30, 3-fluoro-4-(4-{[2-(3-methoxy-1-methyl-1H-pyrazol-4-yl)-4-methylpyrrolidin-1-yl]methyl}phenoxy)benzamide], the values for the Ki in experiment [1] (setting [3]) and in experiment [2] (setting [3]) were 9.59 nM and 0.417 nM, respectively.

With `COc1nn(C)cc1C1CC(C)CN1Cc1ccc(Oc2ccc(C(N)=O)cc2F)cc1` (single isomer, unassigned) [Example 31, 3-fluoro-4-(4-{[2-(3-methoxy-1-methyl-1H-pyrazol-4-yl)-4-methylpyrrolidin-1-yl]methyl}phenoxy)benzamide], the Ki in experiment [1] (setting [3]) was determined as 51.7 nM; in experiment [2] (setting [3]) it was 4.99 nM.

`COc1nn(C)cc1C1CCCN1Cc1ccc(Oc2ccc(C(N)=O)cc2)c(F)c1` (single isomer, unassigned) [Example 32, 4-(2-fluoro-4-{[2-(3-methoxy-1-methyl-1H-pyrazol-4-yl)pyrrolidin-1-yl]methyl}phenoxy)benzamide]: the values for the Ki in experiment [1] (setting [3]) and in experiment [2] (setting [3]) were 112 nM and 2.47 nM, respectively.

Regarding `COc1nn(C)cc1C1CCCN1Cc1ccc(Oc2ccc(C(N)=O)c(O)c2)cc1` (single isomer, unassigned) [Example 33, 2-hydroxy-4-(4-{[2-(3-methoxy-1-methyl-1H-pyrazol-4-yl)pyrrolidin-1-yl]methyl}phenoxy)benzamide], the Ki in experiment [1] (setting [3]) stood at 52.2 nM; in experiment [2] (setting [3]), 1.69 nM.

As for `Cc1c(C2CCCN2Cc2ccc(Oc3ccc(C(N)=O)cc3F)cc2)cnn1C` (single isomer, unassigned) [Example 35, 4-(4-{[2-(1,5-dimethyl-1H-pyrazol-4-yl)pyrrolidin-1-yl]methyl}phenoxy)-3-fluorobenzamide], the Ki worked out at 18.4 nM in experiment [1] (setting [3]); 18.4 nM in experiment [1] (Table 20, radioligand binding); 2.9 nM in experiment [2] (setting [3]); 2.9 nM in experiment [2] (Table 20, radioligand binding). Further, in experiment [2], the “selectivity for KOR over MOR (hMOR Ki divided by hKOR Ki)” value turned out to be 2.5 fold. Moreover, in experiment [2], the “Selectivity hMOR/hKOR” value is 6.4.

Regarding `Cc1nn(C)nc1C1CCCN1Cc1ccc(Oc2ccc(C(N)=O)cc2)cc1` (single isomer, unassigned) [Example 38, 4-(4-{[2-(2,5-dimethyl-2H-1,2,3-triazol-4-yl)pyrrolidin-1-yl]methyl}phenoxy)benzamide], the Ki in experiment [1] (setting [3]) came to 116 nM; in experiment [1] (Table 20, radioligand binding), 116 nM; in experiment [2] (setting [3]), 0.688 nM; in experiment [2] (Table 20, radioligand binding), 0.7 nM. In addition, the “selectivity for KOR over MOR, in words” value in experiment [2] was “more selective than the phenyl examples, Comparators A and B”. For the same compound, the “Selectivity hMOR/hKOR” value in experiment [2] is recorded as 168.

Take `Cc1nn(C)nc1C1CCCN1Cc1ccc(Oc2ccc(C(N)=O)cc2)c(F)c1` (single isomer, unassigned) [Example 39, 4-(4-{[2-(2,5-dimethyl-2H-1,2,3-triazol-4-yl)pyrrolidin-1-yl]methyl}-2-fluorophenoxy)benzamide]: the values for the Ki in experiment [1] (setting [3]) and in experiment [2] (setting [3]) were 40.9 nM and 0.367 nM, respectively.
